Laboratory results as given in ChEMBL document CHEMBL3817784, “The role of transporter ectodomains in drug recognition and binding: phlorizin and the sodiumglucose cotransporter” (Medchemcomm, 2016).

What was measured:
Homo sapiens [1] = species on record: Homo sapiens; test: Binding affinity to SGLT1 R601W mutant (unknown origin) by tryptophan fluorescence quenching method
Homo sapiens [2] = species on record: Homo sapiens; test: Binding affinity to SGLT1 D621W mutant (unknown origin) by tryptophan fluorescence quenching method
[3] = biological target: T1, Sodium/glucose cotransporter 2 (Rattus norvegicus, UniProt P53792); test: Binding affinity to SGLT2 in isolated rat renal cortex brush border membranes using maleimide-PEG800-NHS to couple compound to AFM cantilever tip
T1 sequence (P53792 whole entry): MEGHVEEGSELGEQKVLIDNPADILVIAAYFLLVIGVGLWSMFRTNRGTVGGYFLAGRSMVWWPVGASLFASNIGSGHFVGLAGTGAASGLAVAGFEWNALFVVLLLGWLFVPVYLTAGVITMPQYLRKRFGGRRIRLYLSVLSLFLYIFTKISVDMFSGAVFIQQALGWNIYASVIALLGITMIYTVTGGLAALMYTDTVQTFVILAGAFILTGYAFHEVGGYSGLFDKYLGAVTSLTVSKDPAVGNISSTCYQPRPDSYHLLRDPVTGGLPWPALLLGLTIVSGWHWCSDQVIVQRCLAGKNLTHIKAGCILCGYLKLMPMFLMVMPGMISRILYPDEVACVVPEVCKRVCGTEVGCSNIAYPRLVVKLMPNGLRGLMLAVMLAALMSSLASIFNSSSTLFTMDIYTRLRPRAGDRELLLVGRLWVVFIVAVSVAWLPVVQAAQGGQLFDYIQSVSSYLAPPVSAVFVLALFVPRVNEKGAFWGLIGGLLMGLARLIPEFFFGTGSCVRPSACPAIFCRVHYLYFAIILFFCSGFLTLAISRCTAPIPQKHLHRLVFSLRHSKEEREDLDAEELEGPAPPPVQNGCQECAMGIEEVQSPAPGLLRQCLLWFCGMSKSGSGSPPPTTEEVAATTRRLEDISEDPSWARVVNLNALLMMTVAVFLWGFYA

Row | Qmax (Homo sapiens [1]) | Qmax (Homo sapiens [2]) | Kd [3] | SMILES
1 | 67% | 80% | – | O=C(CCc1ccc(O)cc1)c1c(O)cc(O)cc1O[C@@H]1O[C@H](CO)[C@@H](O)[C@H](O)[C@H]1O
2 | – | – | 200 nM | O=C(CCCCCS)Nc1cc(CCC(=O)c2c(O)cc(O)cc2O[C@@H]2O[C@H](CO)[C@@H](O)[C@H](O)[C@H]2O)ccc1O
